From patent publication US8012944B2, “Method for treating cancer using IAP antisense oligomer and chemotherapeutic agent” (Pharmascience Inc., priority 2003, dated 2011)
Oligonucleotides are written 5' to 3', each unit as a sugar letter and its base; * is a phosphorothioate linkage, no mark a phosphodiester; rarer units and linkages stand in square brackets, end groups in braces. Plain capitals give the bases only. d = 2'-deoxy (DNA); m = 2'-O-methyl

Key:
Assay type in all cases: cell-based, human
[1] = tested on: XIAP RNA; assay: XIAP RNA knock-down in T24 cells (TaqMan quantitative PCR)
Excerpt: (§1) We used TaqMan quantitative PCR (described below) to assay for changes in mRNA levels after oligonucleotide treatment. We employed ELISA for determining XIAP protein levels and western blotting for determining HIAP1 protein levels. Transfection conditions were optimized with Lipofectamine plus or Lipofectamine 2000 (Life Technologies, Canada) on T24 bladder carcinoma cells or H460 non-small cell lung carcinoma cells, or lipofectin on SF-295 glioblastoma cells, using a fluorescein-tagged sense oligonucleotide (5′-mGmAGAAGATGACTGGTAAmCmA-3′; SEQ ID NO: 261) from XIAP spanning the start codon as a control. The results were visualized and gauged by epi-fluorescence microscopy. In the case of T24 cells, transfections were further optimized based on the ability of a published oligonucleotide to downregulate survivin expression (Li et al., Nat. Cell Biol. 1:461-466, 1999) (5′-U/TGTGCTATTCTGTGAAU/TU/T-3′ SEQ ID NO: 262). We optimized the transfection conditions based on the TaqMan results of survivin RNA knock-down detected with PCR primers and fluorescent probe, described in detail below. […] We then applied these conditions to screen for XIAP protein knock-down using the oligo library against T24 cells.
(§2) RNA was extracted from cells lysed in RLT buffer (QIAGEN, Valencia, Calif.), and purified using QIAGEN RNeasy columns/kits. Real-time quantitative PCR was performed on a Perkin-Elmer ABI 7700 Prism PCR machine. RNA was reverse transcribed and amplified according to the TaqMan Universal PCR Master Mix protocol of PE Biosystems, using primers and probes designed to specifically recognize XIAP, HIAP1, survivin, or GAPDH. For human survivin, the forward primer was 5′-[…]-3′ (SEQ ID NO: 263), the reverse primer was 5′-GAAAGGAAAGCGCAACCG-3′ (SEQ ID NO: 264), and the probe was 5′-(FAM)[…](TAMRA)-3′ (SEQ ID NO: 265). For human HIAP1, the forward primer was 5′-[…]-3′ (SEQ ID NO: 266), the reverse primer was 5′-[…]-3′ (SEQ ID NO: 267), and the probe was 5′-(FAM)[…](TAMRA)-3′ (SEQ ID NO: 268). For human XIAP, the forward primer was 5′-[…]-3′ (SEQ ID NO: 269), the reverse primer was 5′-[…]-3′ (SEQ ID NO: 270), and the probe was 5′-(FAM)[…](TAMRA)-3′ (SEQ ID NO: 271). For human GAPDH, the forward primer was 5′-GAAGGTGAAGGTCGGAGTC-3′ (SEQ ID NO: 272), the reverse primer was 5′-GAAGATGGTGATGGGATTC-3′ (SEQ ID NO: 273), and the probe was 5′-(JOE)[…](TAMRA)-3′ (SEQ ID NO: 274). FAM is 6-carboxyfluoroscein, JOE is 6-carboxy-4,5-dichloro-2,7-dimethoxyfluoroscein, and TAMRA is 6-carboxy-N,N,N′,N′-tetramethylrhodamine. FAM and JOE are 5′ reporter dyes, while TAMRA is a 3′ quencher dye.
(§3) Relative quantification of gene expression was performed as described in the PE Biosystems manual using GAPDH as an internal standard. The comparative Ct (cycle threshold) method was used for relative quantitation of IAP mRNA levels compared to GAPDH mRNA levels. Briefly, real-time fluorescence measurements were taken at each PCR cycle and the threshold cycle (Ct) value for each sample was calculated by determining the point at which fluorescence exceeded a threshold limit of 30 times the baseline standard deviation. The average baseline value and the baseline SD are calculated starting from the third cycle baseline value and stopping at the baseline value three cycles before the signal starts to exponentially rise. The PCR primers and/or probes for the specific IAPs were designed to span at least one exon-intron boundary separated by 1 kb or more of genomic DNA, to reduce the possibility of amplifying and detecting genomic DNA contamination. The specificity of the signal, and possible contamination from DNA, were verified by treating some RNA samples with either DNase or RNase, prior to performing the reverse transcription and PCR reaction steps.
The XIAP synthetic library of 96 antisense oligonucleotides was first screened for decreases in XIAP protein levels. […]

[2] = tested on: XIAP protein; assay: XIAP protein knock-down in T24 cells (XIAP ELISA, relative to total protein); conditions: for XIAP protein levels relative to total protein, compared to mock transfection (in words): first screen of the library
Excerpt: as §1
A standard colorimetric XIAP ELISA assay was performed using an affinity-purified rabbit polyclonal antibody to XIAP as a capture antibody, and was detected with a XIAP monoclonal antibody (MBL, Japan) and a biotinylated anti-mouse Ig antibody and horseradish peroxidase-conjugated streptavidin and TMB substrate. Alternatively, a polyclonal XIAP or HIAP1 antibody may be used to measure XIAP or HIAP1 protein levels, respectively.
The XIAP synthetic library of 96 antisense oligonucleotides was first screened for decreases in XIAP protein levels. Specifically, T24 cells (1.5×10^4 cells/well) were seeded in wells of a 96-well plate on day 1, and were cultured in antibiotic-free McCoy's medium for 24 hours. On day 2, the cells were transfected with XIAP antisense oligonucleotides as described above (oligonucleotides are labeled according to their plated position, i.e., A1 to H12, and include two repeats, A13 and B13 that contain lyophilized DNA pellets that stuck to the sealing membrane). Briefly, the nucleobase oligomers were diluted in 10 μl/well of serum-free, antibiotic-free McCoy's medium and then PLUS reagent was added. Lipofectamine was diluted in 10 μl/well of serum-free, antibiotic-free McCoy's medium, and both mixes were incubated for 15 minutes at room temperature. The mixes were then combined and incubated for 15 minutes at room temperature.
In the meantime, the complete medium was removed from the cells and 50 μl/well of serum-free, antibiotic-free medium was added to the cells. The transfection mixes were added to the well, and the cells were incubated for three hours. Then 30 μl/well of serum-free, antibiotic-free medium and 100 μl/well of antibiotic-free complete medium, containing 20% fetal bovine serum were added to each well.
At day 3, XIAP RNA levels were measured using quantitative real-time PCR techniques, as described above. At day 4, XIAP protein levels were measured by ELISA (FIGS. 1A, 1C, 1E, 1G, 1I, and 1K), and total cellular protein was measured biochemically (FIGS. 1B, 1D, 1F, 1H, 1J, and 1L; used to normalize the XIAP protein levels). The results were compared to a mock transfection sample (treated with the transfection agent but no oligonucleotide DNA was added, and then processed as for the other samples). Time course experiments determined that the optimal time for protein knock-down to be around 12 to 24 hours. […]

[3] = tested on: HIAP1 mRNA; assay: HIAP1 mRNA in SF295 cells, basal conditions (TaqMan); design: decrease of HIAP1 mRNA compared to mock or scrambled survivin control: concentration or dose not given beside the values; conditions: for HIAP1 mRNA levels (in words): SF295 cells (FIG. 21)
Experimental: as §2, §3
A library of 15 HIAP1 antisense nucleobase oligomers as oligonucleotides was screened for protein knock-down by western blot analysis and for RNA knock-down by TaqMan, using the primers and probes described in Example 3, above, under two different conditions. HIAP1 RNA levels may be detected using standard Northern blot analyses or RT-PCR techniques. The antisense oligonucleotides were administered to cells under basal conditions or under cycloheximide-induction conditions (24 hour treatment with sub-toxic doses). Cycloheximide (CHX) can lead to a 10- to 200-fold induction of HIAP1 mRNA depending on the cell line treated. […] This effect of CHX is via two distinct mechanisms of action. First, CHX activates NFkB, a known transcriptional inducer of HIAP1, by blocking the de novo synthesis of a labile protein, IkB, which is an inhibitor of NFkB. This effect is mimicked by puromycin, another protein synthesis inhibitor, and by TNF-alpha, which induces a signaling cascade leading to the phosphorylation, ubiquination, and degradation of IkB.
SF295 glioblastoma cells were transfected with lipofectin and oligonucleotide (scrambled survivin, no oligonucleotide, antisense APO 1 to APO 15) or left untreated. […]

[4] = tested on: XIAP mRNA; assay: XIAP mRNA knock-down in H460 cells (real-time RT-PCR / TaqMan)
Experimental: as §2, §3
A portion of the 96 nucleobase oligomers depicted in Table 2 were rescreened for their ability to knock-down XIAP mRNA in NCI-H460 cells at […] post-transfection.
One day prior to transfection, H460 cells were plated in 6- or 96-well tissue culture plates. Phosphorothioate antisense oligonucleotides were delivered into cells with Lipofectamine 2000 (Life Technologies) in the form of liposome-oligonucleotide complexes. Following a 4.5 or 6 h transfection, the transfection medium was replaced with RPMI medium containing 10% FBS, and the cells incubated for another 24 or 48 h.
Total RNA from H460 cells treated with liposome-oligonucleotide complexes for 6 hours was immediately isolated using RNeasy mini spin columns and DNase treatment (QIAGEN, Valencia, Calif.). Specific XIAP mRNA was measured using a real-time quantitative RT-PCR method. […]

[5] = tested on: XIAP mRNA; assay: as above; conditions: 2 × 2 MBO; NCI-H460 cells, 9 hours post-transfection; relative level (mock control 1.01)

## ACCATTCTGGATACCAGAA (mA*mCdCdAdTdTdCdTdGdGdAdTdAdCdCdAdGmA*mA) [Code C5]
[1]
  XIAP down-regulation T24 RNA: 71%
[2]
  XIAP down-regulation T24 protein: 54%
  XIAP protein levels relative to total protein, compared to mock transfection (in words): some decrease

## ACCCATGCACAAAACTACC (chemistry not given here) [APO 4]
[3]
  HIAP1 mRNA levels (in words): stress-induced increase in HIAP1 mRNA

## ACCCTGGATACCATTTAGC (antisense; chemistry not fully specified) [Code F8]
[2]
  XIAP protein levels relative to total protein, compared to mock transfection (in words): some decrease
[4]
  XIAP down-regulation H460 RNA: 47%
[5]
  XIAP RNA: 0.62

## AGTTTTCAACTTTGTACTG (antisense; sugars from the 5' end m2 d15 m2, backbone and T or U not given here; further chemistry not fully specified) [Code D5]
[1]
  XIAP down-regulation T24 RNA: 39%
[2]
  XIAP down-regulation T24 protein: 33%
  XIAP protein levels relative to total protein, compared to mock transfection (in words): some decrease

## CAGGGTTCCTCGGGTATAT (antisense; sugars from the 5' end m2 d15 m2, backbone and T or U not given here; further chemistry not fully specified) [Code B6]
[1]
  XIAP down-regulation T24 RNA: 51%
[2]
  XIAP down-regulation T24 protein: 47%
  XIAP protein levels relative to total protein, compared to mock transfection (in words): some decrease

## CCTGTCCTTTAATTCTTAT (chemistry not given here) [APO 13]
[3]
  HIAP1 mRNA levels (in words): stress-induced increase in HIAP1 mRNA

## CTACAGCTGCATGACAACT (antisense; sugars from the 5' end m2 d15 m2, backbone and T or U not given here; further chemistry not fully specified) [Code F4]
[1]
  XIAP down-regulation T24 RNA: 33%
[2]
  XIAP down-regulation T24 protein: 43%
  XIAP protein levels relative to total protein, compared to mock transfection (in words): some decrease

## GAAAGTAATATTTAAGCAG (antisense; chemistry not fully specified) [Code E2]
[1]
  XIAP down-regulation T24 RNA: 54%
[2]
  XIAP down-regulation T24 protein: 51%
  XIAP protein levels relative to total protein, compared to mock transfection (in words): some decrease
[4]
  XIAP down-regulation H460 RNA: 60%

## GCATTTTCGTTATTCATTG (chemistry not given here) [APO 11]
[3]
  HIAP1 mRNA levels (in words): stress-induced increase in HIAP1 mRNA

## GCTGAGTCTCCATATTGCC [G4] (chemistry not fully specified) [Code G4]
[1]
  XIAP down-regulation T24 RNA: 34%
[2]
  XIAP down-regulation T24 protein: 48%
  XIAP protein levels relative to total protein, compared to mock transfection (in words): some decrease
[4]
  XIAP down-regulation H460 RNA: 51%

## GGCTGCAATATTTCCTTTT (chemistry not given here) [APO 14]
[3]
  HIAP1 mRNA levels (in words): stress-induced increase in HIAP1 mRNA

## GTGTAGTAGAGTCCAGCAC (antisense; sugars from the 5' end m2 d15 m2, backbone, methylation of C and T or U not given here; further chemistry not fully specified) [Code F6]
[1]
  XIAP down-regulation T24 RNA: 34%
[2]
  XIAP down-regulation T24 protein: 39%
  XIAP protein levels relative to total protein, compared to mock transfection (in words): some decrease

## TTCAACATGGAGATTCTAA (chemistry not given here) [APO 9]
[3]; SF295 cells, six hours after transfection
  decrease of HIAP1 mRNA compared to mock or scrambled survivin control: ~50%

## TTGTAGACTGCGTGGCACT (antisense; sugars from the 5' end m2 d15 m2, backbone and T or U not given here; further chemistry not fully specified) [Code B5]
[4]
  XIAP down-regulation H460 RNA: 61%
[5]
  XIAP RNA: 0.38

## TTTCTCAGTAGTTCTTACC (antisense; sugars from the 5' end m2 d15 m2, backbone, methylation of C and T or U not given here; further chemistry not fully specified) [Code D9]
[4]
  XIAP down-regulation H460 RNA: 39%
[5]
  XIAP RNA: 0.73
